# Results published in PubChem BioAssay (NCI).
#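 Briefly, cells in 96-well plates were exposed to five compound concentrations for 48 h, and endpoints were estimated by linear interpolation. The concentration for 50% growth inhibition is given as GI50. Definition used: TGI = concentration required for complete inhibition of growth.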
# Legend:
# Test in all cases: NCI anticancer screen, dose series, 48 h
# [1] = test system: 786-0 renal
# [2] = test system: A498 renal
# [3] = test system: A549 NSCLC
# [4] = test system: ACHN renal
# [5] = test system: BT-549 breast
# [6] = test system: CAKI-1 renal
# [7] = test system: CCRF-CEM leukemia
# [8] = test system: COLO 205 colon
# [9] = test system: DU-145 prostate
# [10] = test system: EKVX NSCLC
# [11] = test system: HCC-2998 colon
# [12] = test system: HCT-116 colon
# [13] = test system: HCT-15 colon
# [14] = test system: HL-60(TB) leukemia
# [15] = test system: HOP-62 NSCLC
# [16] = test system: HS 578T breast
# [17] = test system: HT29 colon
# [18] = test system: IGROV1 ovarian
# [19] = test system: K-562 leukemia
# [20] = test system: KM12 colon
# [21] = test system: LOX IMVI melanoma
# [22] = test system: M14 melanoma
# [23] = test system: MALME-3M melanoma
# [24] = test system: MCF7 breast
# [25] = test system: MDA-MB-231 breast
# [26] = test system: MDA-MB-435
# [27] = test system: MOLT-4 leukemia
# [28] = test system: NCI-H226 lung
# [29] = test system: NCI-H23 lung
compound,measurement,setting,value
O=C1OCC2=C1C(c1ccc(Cl)c(Cl)c1)c1cc3c(cc1N2CCO)CCC3 (configuration not stated),GI50,[1],242 nM
same,TGI,[1],10200 nM
same,GI50,[2],91.9 nM
same,TGI,[2],1370 nM
same,GI50,[3],195 nM
same,TGI,[3],8040 nM
same,GI50,[4],371 nM
same,TGI,[4],12200 nM
same,GI50,[5],1350 nM
same,TGI,[5],10900 nM
same,GI50,[6],145 nM
same,TGI,[6],7890 nM
same,GI50,[7],257 nM
same,TGI,[7],13600 nM
same,GI50,[8],175 nM
same,TGI,[8],702 nM
same,GI50,[9],203 nM
same,TGI,[9],6560 nM
same,GI50,[10],435 nM
same,TGI,[10],15600 nM
same,GI50,[11],418 nM
same,TGI,[11],4290 nM
same,GI50,[12],234 nM
same,TGI,[12],6590 nM
same,GI50,[13],215 nM
same,TGI,[13],20300 nM
same,GI50,[14],172 nM
same,TGI,[14],1540 nM
same,GI50,[15],229 nM
same,TGI,[15],9260 nM
same,GI50,[16],232 nM
same,TGI,[16],14300 nM
same,GI50,[17],164 nM
same,TGI,[17],646 nM
same,GI50,[18],555 nM
same,TGI,[18],17800 nM
same,GI50,[19],204 nM
same,TGI,[19],9710 nM
same,GI50,[20],181 nM
same,TGI,[20],6570 nM
same,GI50,[21],303 nM
same,TGI,[21],10300 nM
same,GI50,[22],200 nM
same,TGI,[22],6530 nM
same,GI50,[23],193 nM
same,TGI,[23],16400 nM
same,GI50,[24],157 nM
same,TGI,[24],7200 nM
same,GI50,[25],747 nM
same,TGI,[25],9360 nM
same,GI50,[26],61.1 nM
same,TGI,[26],183 nM
same,GI50,[27],628 nM
same,TGI,[27],27800 nM
same,GI50,[28],248 nM
same,TGI,[28],6470 nM
same,GI50,[29],239 nM
